# Experiments:
# U87 glial blastoma = test: in vitro amino acid uptake, U87 cells; format: cell-based, human
# Excerpt: The inventive compounds have been evaluated in vitro for tumor binding specificity (i.e. uptake cells) using a variety of tumor cell lines available in the art, along with reference compounds such as Me-AIB and BCH. Detailed description of these assays can be found in Martarello et al. (2002) Journal of Medicinal Chemistry, 45:2250-2259 and McConathy et al. (2003) Nuclear Medicine and Biology, 30:477-490. These, so called “amino acid uptake studies” are typically carried out with radiolabeled compounds in at least five phenotypically different human tumor cell lines (e.g. A549 lung carcinoma, MB468 breast carcinoma, DU145 prostate carcinoma, SKOV3 ovarian carcinoma, and U87 glial blastoma). These tumor cell lines can be grown either in vitro or in vivo with severe combined immunodeficiency (SCID) mice as a host. The fore-mentioned tumor cell lines are available at the Winship Cancer Institute of Emory University.
# For the in vitro amino acid uptake studies, all cells can be grown to monolayer confluency in T-175 culture flasks [Corning, Corning, N.Y.] (approx. 1×10^8 cells/flask) in Dulbecco's Modified Eagle's Medium (DMEM) [Sigma, St. Louis, Mo.] in a humidified incubator (37° C., 5% CO2/95% air). Media are supplemented with 10% fetal calf serum [Hyclone, Logan, Utah], and antibiotics (10,000 U/ml penicillin and 10 mg/ml streptomycin) (Sigma, St. Louis, Mo.). For tissue culture passage, monolayer cells are detached by gentle trypsinization, resuspended in complete media, and split 1:10 into new T-flasks. […]
# In the in vitro studies the uptake rate of each amino acid compound is measured in each tumor line, as well as the dominant transport mechanisms of each tumor cell line. After trypsinization, cells are resuspended in serum-free media, then counted on a hemocytometer, with viability assessed through Trypan blue staining. […] The vials are placed in a Cobra-II gamma counter (Packard, Meriden, Conn.), with the activity per cell number determined. […] Saline washes are performed as described above, and the filtered cells radioactivity determined on the gamma counter. […]
# [1] = test system: SKOV3 Ovarian Tumor Cells Implanted SC in SCID Mice; test: tissue distribution, SKOV3 tumor-bearing SCID mice; format: in vivo
# Protocol: For the in vitro amino acid uptake studies, all cells can be grown to monolayer confluency in T-175 culture flasks [Corning, Corning, N.Y.] (approx. 1×10^8 cells/flask) in Dulbecco's Modified Eagle's Medium (DMEM) [Sigma, St. Louis, Mo.] in a humidified incubator (37° C., 5% CO2/95% air). Media are supplemented with 10% fetal calf serum [Hyclone, Logan, Utah], and antibiotics (10,000 U/ml penicillin and 10 mg/ml streptomycin) (Sigma, St. Louis, Mo.). For tissue culture passage, monolayer cells are detached by gentle trypsinization, resuspended in complete media, and split 1:10 into new T-flasks. Cultures are passaged weekly, and fed fresh media every 2 to 3 days. To initiate tumor growth in SCID mice, 1×10^6 cells are injected s.c. bilaterally into the flanks (inguinal region) of the recipient animals using a 1 ml syringe with a 27 gauge needle. Ex vivo experiments can be performed with animals containing tumors weighing between 500 mg and 1 g, as estimated by caliper measurement (tumor weight=(π/6)*abc, where a, b and c are the tumor length, width and height, respectively). The compounds of the invention are further evaluated for their tumor specificity and selectivity in tumor-bearing animal models. One can evaluate and compare the transport, accumulation and tissue distribution of each compound in these in vivo animal studies. Tissue distribution of the compounds is measured in SCID mice (average weight, 20-25 g) bearing human tumors as follows. The candidate radioligands (20 uCi in 0.4 ml 0.9% NaCl) are injected into the tail vein of tumor-bearing mice. […] Tissues (blood, heart, liver, lungs, kidneys, bone, thyroid, muscle, brain and tumor) are excised, rinsed in saline, and blotted dry. The tissues are weighed, placed into 12×75 mm glass vials, the radioactivity determined with a gamma counter, and the percent dose/gram calculated. Total activities of blood and muscle are calculated by assuming that they account for 7% and 40% of the total body mass, respectively.
smiles,measurement,setting,value
"NC1(C(=O)O)CCC1[18F] [Anti-R,S 2-[^18F]FACBC, (R,S) anti-1-amino-2-[^18F]fluorocyclobutyl-1-carboxylic acid]",% Dose Uptake/0.5e6 Cells,"U87 glial blastoma; U87, No inhibitor",8.28 +/− 0.45 % Dose Uptake/0.5e6 Cells
same,% Dose Uptake/0.5e6 Cells,"U87 glial blastoma; U87, inhibitor BCH (10 mM)",2.48 +/− 0.23 % Dose Uptake/0.5e6 Cells
same,% Dose Uptake/0.5e6 Cells,"U87 glial blastoma; U87, inhibitor MeAlB (10 mM)",5.41 +/− 0.64 % Dose Uptake/0.5e6 Cells
same,% Dose/g blood,[1]; 15 Minutes,3.01 % Dose/g
same,% Dose/g bone,[1]; 15 Minutes,1.40 % Dose/g
same,% Dose/g brain,[1]; 15 Minutes,0.18 % Dose/g
same,% Dose/g heart,[1]; 15 Minutes,2.37 % Dose/g
same,% Dose/g kidney,[1]; 15 Minutes,8.70 % Dose/g
same,% Dose/g liver,[1]; 15 Minutes,2.62 % Dose/g
same,% Dose/g lung,[1]; 15 Minutes,3.96 % Dose/g
same,% Dose/g muscle,[1]; 15 Minutes,1.14 % Dose/g
same,% Dose/g pancreas,[1]; 15 Minutes,34.27 % Dose/g
same,% Dose/g spleen,[1]; 15 Minutes,5.00 % Dose/g
same,% Dose/g tumor,[1]; 15 Minutes,4.89 % Dose/g
same,% Dose/g blood,[1]; 30 Minutes,2.22 % Dose/g
same,% Dose/g bone,[1]; 30 Minutes,1.46 % Dose/g
same,% Dose/g brain,[1]; 30 Minutes,0.21 % Dose/g
same,% Dose/g heart,[1]; 30 Minutes,2.16 % Dose/g
same,% Dose/g kidney,[1]; 30 Minutes,6.12 % Dose/g
same,% Dose/g liver,[1]; 30 Minutes,2.49 % Dose/g
same,% Dose/g lung,[1]; 30 Minutes,2.65 % Dose/g
same,% Dose/g muscle,[1]; 30 Minutes,1.21 % Dose/g
same,% Dose/g pancreas,[1]; 30 Minutes,31.88 % Dose/g
same,% Dose/g spleen,[1]; 30 Minutes,5.22 % Dose/g
same,% Dose/g tumor,[1]; 30 Minutes,5.56 % Dose/g
same,% Dose/g blood,[1]; 60 Minutes,0.94 % Dose/g
same,% Dose/g bone,[1]; 60 Minutes,0.91 % Dose/g
same,% Dose/g brain,[1]; 60 Minutes,0.15 % Dose/g
same,% Dose/g heart,[1]; 60 Minutes,1.40 % Dose/g
same,% Dose/g kidney,[1]; 60 Minutes,2.27 % Dose/g
same,% Dose/g liver,[1]; 60 Minutes,1.28 % Dose/g
same,% Dose/g lung,[1]; 60 Minutes,1.26 % Dose/g
same,% Dose/g muscle,[1]; 60 Minutes,1.03 % Dose/g
same,% Dose/g pancreas,[1]; 60 Minutes,17.57 % Dose/g
same,% Dose/g spleen,[1]; 60 Minutes,2.57 % Dose/g
same,% Dose/g tumor,[1]; 60 Minutes,4.53 % Dose/g
same,% Dose/g blood,[1]; 120 Minutes,0.53 % Dose/g
same,% Dose/g bone,[1]; 120 Minutes,0.94 % Dose/g
same,% Dose/g brain,[1]; 120 Minutes,0.16 % Dose/g
same,% Dose/g heart,[1]; 120 Minutes,1.00 % Dose/g
same,% Dose/g kidney,[1]; 120 Minutes,1.37 % Dose/g
same,% Dose/g liver,[1]; 120 Minutes,0.67 % Dose/g
same,% Dose/g lung,[1]; 120 Minutes,0.68 % Dose/g
same,% Dose/g muscle,[1]; 120 Minutes,0.65 % Dose/g
same,% Dose/g pancreas,[1]; 120 Minutes,10.42 % Dose/g
same,% Dose/g spleen,[1]; 120 Minutes,1.51 % Dose/g
same,% Dose/g tumor,[1]; 120 Minutes,3.39 % Dose/g
